What was measured:
[1] = Binding affinity to wild type HIV-1 NL4-3 CA-SP1 cleavage site of Gag-Pol protein assessed as inhibition of HIV-1 maturation; parameters: species or system Human immunodeficiency virus 1
[2] = AUC in rat at 5 mg/kg, po measured for 6 hrs; assay type: ADME, organism-based; parameters: time 6 hrs, dose 5 mg/kg; conditions: in vivo
[3] = Binding affinity to HIV-1 CA-SP1 cleavage site of Gag-pol protein harboring deltaV370 mutant assessed as inhibition of HIV-1 maturation; parameters: species or system Human immunodeficiency virus 1
[4] = Binding affinity to HIV-1 CA-SP1 cleavage site of Gag-Pol protein harboring V370A mutant assessed as inhibition of HIV-1 maturation; parameters: species or system Human immunodeficiency virus 1
[5] = system: Human immunodeficiency virus 1; test: Ratio of EC50 for wild type HIV-1 NL4-3 CA-SP1 cleavage site of Gag-Pol protein in presence of human serum albumin to EC50 for wild type HIV-1 NL4-3 CA-SP1 cleavage site of Gag-Pol protein
[6] = Binding affinity to wild type HIV-1 NL4-3 CA-SP1 cleavage site of Gag-Pol protein assessed as inhibition of HIV-1 maturation in presence of human serum albumin; parameters: species or system Human immunodeficiency virus 1
[7] = Aqueous solubility of the compound; assay type: physicochemical
[8] = Binding affinity to HIV-1 CA-SP1 cleavage site of Gag-Pol protein harboring V362I mutant assessed as inhibition of HIV-1 maturation; parameters: species or system Human immunodeficiency virus 1
[9] = Volume of distribution at steady state in dog; assay type: ADME, Canis lupus familiaris; conditions: in vivo, read-out: Vdss
[10] = Oral bioavailability in dog; assay type: ADME, organism-based, Canis lupus familiaris; conditions: in vivo
[11] = Clearance in dog; assay type: ADME, Canis lupus familiaris; conditions: in vivo
[12] = Oral bioavailability in cynomolgus monkey; assay type: ADME, organism-based, Macaca fascicularis; conditions: in vivo
[13] = Binding affinity to HIV-1 CA-SP1 cleavage site of Gag-Pol protein harboring Thr371Ala mutant assessed as inhibition of HIV-1 maturation; parameters: species or system Human immunodeficiency virus 1
[14] = Binding affinity to HIV-1 CA-SP1 cleavage site of Gag-Pol protein harboring V370M mutant assessed as inhibition of HIV-1 maturation; parameters: species or system Human immunodeficiency virus 1
[15] = Binding affinity to HIV-1 CA-SP1 cleavage site of Gag-Pol protein harboring deltaThr371 mutant assessed as inhibition of HIV-1 maturation; parameters: species or system Human immunodeficiency virus 1
[16] = Binding affinity to HIV-1 CA-SP1 cleavage site of Gag-Pol protein harboring deltaV370/Thr371Ala mutant assessed as inhibition of HIV-1 maturation; parameters: species or system Human immunodeficiency virus 1
[17] = Volume of distribution at steady state in cynomolgus monkey; assay type: ADME, Macaca fascicularis; conditions: in vivo, read-out: Vdss
[18] = Clearance in rat at 5 mg/kg, po or 1 mg/kg, iv; assay type: ADME, organism-based; conditions: in vivo
[19] = AUC in rat for 6 hrs; assay type: ADME; parameters: time 6 hrs; conditions: in vivo
[20] = Binding affinity to HIV-1 CA-SP1 cleavage site of Gag-Pol protein harboring […] mutant assessed as inhibition of HIV-1 maturation; parameters: species or system Human immunodeficiency virus 1

Structure (SMILES): C=C(C)[C@@H]1CC[C@]2(C(=O)O)CC[C@]3(C)[C@H](CC[C@@H]4[C@@]5(C)CC=C(c6cccc(C(=O)O)c6)C(C)(C)[C@@H]5CC[C@]43C)[C@@H]12
- EC50 [1]: > 8 µM

Structure (SMILES): C=C(C)[C@@H]1CC[C@]2(CN(C)CCCN3CCS(=O)(=O)CC3)CC[C@]3(C)[C@H](CC[C@@H]4[C@@]5(C)CC=C(c6ccc(C(=O)O)cc6)C(C)(C)[C@@H]5CC[C@]43C)[C@@H]12
- AUC ([2]; 6 h): 4.834 µM·h
- EC50 [3]: 0.026 µM

Structure (SMILES): C=C(C)[C@@H]1CC[C@]2(C(=O)N[C@@H](CN(C)C)C(=O)O)CC[C@]3(C)[C@H](CC[C@@H]4[C@@]5(C)CC=C(c6ccc(C(=O)O)cc6)C(C)(C)[C@@H]5CC[C@]43C)[C@@H]12
- EC50 [4]: 0.772 µM
- EC50 [1]: 0.046 µM
- EC50 [3]: > 0.16 µM

Structure (SMILES): C=C(C)[C@@H]1CC[C@]2(C(=O)NCCC(C)C)CC[C@]3(C)[C@H](CC[C@@H]4[C@@]5(C)CC=C(c6ccc(C(=O)O)cc6)C(C)(C)[C@@H]5CC[C@]43C)[C@@H]12
- EC50 [4]: 0.101 µM
- EC50 [1]: 0.047 µM
- EC50 [3]: 1.6 µM

Structure (SMILES): C=C(C)[C@@H]1CC[C@]2(C(=O)O)CC[C@]3(C)[C@H](CC[C@@H]4[C@@]5(C)CC=C(c6ccc(C(=O)O)cc6C)C(C)(C)[C@@H]5CC[C@]43C)[C@@H]12
- Ratio EC50 [5]: 1
- EC50 [4]: 3.9 µM
- EC50 [6]: 0.66 µM
- EC50 [1]: 0.613 µM

Structure (SMILES): C=C(C)[C@@H]1CC[C@]2(C(=O)NCCN(C)C)CC[C@]3(C)[C@H](CC[C@@H]4[C@@]5(C)CC=C(c6ccc(C(=O)O)cc6)C(C)(C)[C@@H]5CC[C@]43C)[C@@H]12
- EC50 [3]: 0.031 µM

Structure (SMILES): C=C(C)[C@@H]1CC[C@]2(CNCCCN3CCS(=O)(=O)CC3)CC[C@]3(C)[C@H](CC[C@@H]4[C@@]5(C)CC=C(c6ccc(C(=O)O)cc6)C(C)(C)[C@@H]5CC[C@]43C)[C@@H]12
- AUC at 6 h [2]: 1.71 µM·h

Structure (SMILES): C=C(C)[C@@H]1CC[C@]2(NCCN3CCS(=O)(=O)CC3)CC[C@]3(C)[C@H](CC[C@@H]4[C@@]5(C)CC=C(c6ccc(C(=O)O)cc6)C(C)(C)[C@@H]5CC[C@]43C)[C@@H]12 [BMS-955176]
- AUC at 6 h [2]: 14.2 µM·h
- solubility [7]: < 1 µg/mL
- EC50 [4]: 0.003 µM
- EC50 [8]: 0.004 µM
- Vd [9]: 0.43 L/kg
- bioavailability [10]: 9%
- clearance [11]: 0.13 mL/min/kg
- bioavailability [12]: 4%
- EC50 [6]: 0.01 µM
- EC50 [13]: 0.003 µM
- EC50 [14]: 0.003 µM
- EC50 [15]: 0.005 µM
- EC50 [16]: 0.007 µM
- EC50 [3]: 0.013 µM
- Vd [17]: 0.36 L/kg

Structure (SMILES): C=C(C)[C@@H]1CC[C@]2(CNCCN(C)C)CC[C@]3(C)[C@H](CC[C@@H]4[C@@]5(C)CC=C(c6ccc(C(=O)O)cc6)C(C)(C)[C@@H]5CC[C@]43C)[C@@H]12
- EC50 [6]: 0.009 µM
- EC50 [3]: 0.021 µM

Structure (SMILES): C=C(C)[C@@H]1CC[C@]2(C(=O)NCCC(=O)O)CC[C@]3(C)[C@H](CC[C@@H]4[C@@]5(C)CC=C(c6ccc(C(=O)O)cc6)C(C)(C)[C@@H]5CC[C@]43C)[C@@H]12
- EC50 [4]: 0.427 µM
- EC50 [6]: 0.449 µM
- EC50 [1]: 0.037 µM
- EC50 [3]: > 4 µM

Structure (SMILES): C=C(C)[C@@H]1CC[C@]2(CNCCN3CCS(=O)(=O)CC3)CC[C@]3(C)[C@H](CC[C@@H]4[C@@]5(C)CC=C(c6ccc(C(=O)O)cc6)C(C)(C)[C@@H]5CC[C@]43C)[C@@H]12
- EC50 [3]: 0.006 µM

Structure (SMILES): C=C(C)[C@@H]1CC[C@]2(C(=O)NCCN(CC)CC(=O)O)CC[C@]3(C)[C@H](CC[C@@H]4[C@@]5(C)CC=C(c6ccc(C(=O)O)cc6)C(C)(C)[C@@H]5CC[C@]43C)[C@@H]12
- EC50 [4]: 0.009 µM
- EC50 [1]: 0.003 µM
- EC50 [3]: 0.064 µM

Structure (SMILES): C=C(C)[C@@H]1CC[C@]2(C(=O)O)CC[C@]3(C)[C@H](CC[C@@H]4[C@@]5(C)CC=C(c6ccc(C(=O)O)cc6F)C(C)(C)[C@@H]5CC[C@]43C)[C@@H]12
- Ratio EC50 [5]: 1
- EC50 [4]: 1.4 µM
- EC50 [6]: 0.05 µM
- EC50 [1]: 0.055 µM

Structure (SMILES): C=C(C)[C@@H]1CC[C@]2(C(=O)O)CC[C@]3(C)[C@H](CC[C@@H]4[C@@]5(C)CC=C(c6ccc(C(=O)O)cc6)C(C)(C)[C@@H]5CC[C@]43C)[C@@H]12
- clearance [18]: 1 mL/min/kg
- AUC at 6 h [19]: 5.72 µM·h
- EC50 [3]: > 3 µM

Structure (SMILES): C=C(C)[C@@H]1CC[C@]2(C(=O)NCCNC(C)=O)CC[C@]3(C)[C@H](CC[C@@H]4[C@@]5(C)CC=C(c6ccc(C(=O)O)cc6)C(C)(C)[C@@H]5CC[C@]43C)[C@@H]12
- EC50 [4]: 0.024 µM
- EC50 [6]: 0.022 µM
- EC50 [1]: 0.005 µM
- EC50 [3]: 0.361 µM

Structure (SMILES): C=C(C)[C@@H]1CC[C@]2(C(=O)NCCN3CCS(=O)(=O)CC3)CC[C@]3(C)[C@H](CC[C@@H]4[C@@]5(C)CC=C(c6ccc(C(=O)O)cc6)C(C)(C)[C@@H]5CC[C@]43C)[C@@H]12
- AUC at 6 h [2]: 3.99 µM·h
- EC50 [4]: 0.006 µM
- EC50 [1]: 0.002 µM
- EC50 [3]: 0.06 µM

Structure (SMILES): C=C(C)[C@@H]1CC[C@]2(C(=O)O)CC[C@]3(C)[C@H](CC[C@@H]4[C@@]5(C)CC[C@H](OC(=O)CC(C)(C)C(=O)O)C(C)(C)[C@@H]5CC[C@]43C)[C@@H]12 [BEVIRIMAT]
- solubility [7]: < 1 µg/mL
- clearance [18]: 4 mL/min/kg
- EC50 [20]: 0.008 µM
- EC50 [14]: 0.111 µM
- EC50 [16]: > 4 µM

Structure (SMILES): C=C(C)[C@@H]1CC[C@]2(C(=O)O)CC[C@]3(C)[C@H](CC[C@@H]4[C@@]5(C)CC=C(c6ccc(C(=O)O)cc6Cl)C(C)(C)[C@@H]5CC[C@]43C)[C@@H]12
- Ratio EC50 [5]: 1
- EC50 [4]: > 4 µM
- EC50 [6]: 0.117 µM
- EC50 [1]: 0.114 µM

Structure (SMILES): C=C(C)[C@@H]1CC[C@]2(C(=O)O)CC[C@]3(C)[C@H](CC[C@@H]4[C@@]5(C)CC=C(c6ccc(C(=O)O)c(C(=O)O)c6)C(C)(C)[C@@H]5CC[C@]43C)[C@@H]12
- EC50 [4]: 0.212 µM
- EC50 [1]: 0.038 µM

Structure (SMILES): C=C(C)[C@@H]1CC[C@]2(NCCN3CCS(=O)(=O)CC3)CC[C@]3(C)[C@H](CC[C@@H]4[C@@]5(C)CC=C(c6ccc(C(=O)O)c(F)c6)C(C)(C)[C@@H]5CC[C@]43C)[C@@H]12
- AUC at 6 h [2]: 25.5 µM·h
- EC50 [6]: 0.013 µM
- EC50 [1]: 0.003 µM
- EC50 [3]: 0.01 µM
